Results from PubChem BioAssay (NCI).
Where “and” joins values, the source holds several entries; their conditions need not be identical. Equal values may be shown once.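 How tested: cells in 96-well plates exposed to compound for 48 hours at five concentrations. GI50 is the concentration that inhibits growth by half. Definition used: TGI = concentration required for complete inhibition of growth.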

Key:
Test in all cases: NCI anticancer screen, dose series, 48 h
HOP-92 NSCLC = tested on: HOP-92 NSCLC
U251 CNS = tested on: U251 CNS
HL-60(TB) leukemia = tested on: HL-60(TB) leukemia
SF-295 CNS = tested on: SF-295 CNS
PC-3 prostate = tested on: PC-3 prostate
SK-MEL-2 melanoma = tested on: SK-MEL-2 melanoma
CCRF-CEM leukemia = tested on: CCRF-CEM leukemia
UACC-257 melanoma = tested on: UACC-257 melanoma

| Compound | TGI (HOP-92 NSCLC) | TGI (U251 CNS) | TGI (HL-60(TB) leukemia) [µM] | TGI (SF-295 CNS) | TGI (PC-3 prostate) | TGI (SK-MEL-2 melanoma) | TGI (CCRF-CEM leukemia) [µM] | TGI (UACC-257 melanoma) | GI50 (HOP-92 NSCLC) [µM] | GI50 (U251 CNS) [µM] | GI50 (HL-60(TB) leukemia) | GI50 (SF-295 CNS) [µM] | GI50 (PC-3 prostate) | GI50 (SK-MEL-2 melanoma) [µM] | GI50 (CCRF-CEM leukemia) | GI50 (UACC-257 melanoma) |
| --- | --- | --- | --- | --- | --- | --- | --- | --- | --- | --- | --- | --- | --- | --- | --- | --- |
| CCc1[nH]nc(C(N)=O)c1N=NN(C)C | > 100 µM | > 100 µM | > 100 | > 100 µM | > 100 µM | > 100 µM | > 100 | > 100 µM | – | – | – | – | – | – | – | – |
| CN(/N=C/c1ccccc1O)c1ccc2ccccc2n1 | > 100 µM | 29.8 µM | > 100 | 30.4 µM | 34.3 µM | > 100 µM | > 100 | > 100 µM | – | – | – | – | – | – | – | – |
| Cc1ccc2[nH]c(O)c(N=Nc3ccccc3[N+](=O)[O-])c2c1 | 6.55 µM | 18.6 µM | > 100 | > 58.8 µM | > 100 µM | > 100 µM | > 100 | > 100 µM | – | – | – | – | – | – | – | – |
| O=C(O)CN1C(=O)CN=C(c2ccccn2)c2cc(Cl)ccc21 | > 100 µM | > 100 µM | 22.9 | > 100 µM | > 100 µM | > 100 µM | – | > 100 µM | – | – | – | – | – | – | – | – |
| C#Cc1cccc(NC(=O)c2cccc(NC(=O)CCl)c2)c1 | 34.6 µM | 28.4 µM | 39.7 | > 82.5 µM | 70.7 µM | > 82.5 µM | 54.5 | > 82.5 µM | 14.7 | 12.1 | 13.2 µM | 51.1 | 18.9 µM | 62.8 | 7.29 µM | 54.7 µM |
| Cc1c[nH]c(=O)n(Cc2nnc(CCC(=O)c3nc4ccccc4[nH]3)o2)c1=O | > 100 µM | > 42.5 µM | > 100 | 9.48 µM | > 100 µM | > 23.9 µM | > 100 | > 100 µM | 1.44 | 0.372 | 0.966 µM | 0.728 | 0.477 µM | 0.887 | 0.459 µM | 0.787 µM |
| O=C(Nc1cccc(C(F)(F)F)c1)c1ccc(NC2=C(Cl)C(=O)N(Cc3ccccc3)C2=O)cc1 | 14.2 µM | 27.1 µM | 5.64 | 23.6 µM | 27 µM | 24.2 µM | > 100 | 58 µM | 3.93 | 13.7 | 2.08 µM | 10.1 | 14 µM | 7.04 | 3.06 µM | 27.9 µM |
| O=C(c1ccccc1)C1OC1C(=O)c1ccccc1 (stereo unspecified) | 6.09 µM | 37.1 µM | – | 37.3 µM | 25.7 µM | 9.53 µM | – | 29.6 µM | 1.96 | 7.58 | – | 5.03 | 4.72 µM | 2.66 | – | 5.75 µM |
| COc1ccc(-c2cc(-c3ccc(OC)cc3)nc(NCCCNc3ccnc4cc(Cl)ccc34)n2)cc1 | 2.64 µM | 3 µM | 3.86 | 32 µM | – | 28.4 µM | 6.98 | 3.83 µM | 1.24 | 1.6 | 1.91 µM | 13.9 | – | 14 | 2.26 µM | 1.96 µM |
| CCn1c(SCC(=O)Nc2cc(C(F)(F)F)ccc2Cl)nc2ccccc2c1=O | 41.4 µM | > 100 µM | > 100 | > 100 µM | > 100 µM | 72.3 µM | – | – | 12.1 | 30.3 | > 100 µM | 71.9 | 14 µM | 24.6 | – | – |
| COc1ccc2c(c1)C(=O)c1c-2c(N2CCN(C(=O)CCNCCNCCN)CC2)nc2ccccc12 | 10.6 µM | – | 6.83 | 44.7 µM | 25.9 µM | 37 µM | 7.93 | 9.33 µM | 2.44 | – | 3.03 µM | 20.8 | 10.3 µM | 12.4 | 2.85 µM | 3.24 µM |
| CCN(CC)CCCNc1n[n+]([O-])c2ccccc2[n+]1[O-] | > 100 µM | > 100 µM | 19.7 | 49.3 µM | > 100 µM | 21.5 µM | > 100 | 54.7 µM | – | – | – | – | – | – | – | – |
| FC(F)(F)c1nc(SCc2ccc(Cl)cc2)n[nH]1 | > 100 µM | > 100 µM | > 100 | > 100 µM | > 100 µM | > 100 µM | – | > 100 µM | – | – | – | – | – | – | – | – |
| COc1ccc(CNCCCN2C(=O)c3ccc4c5c(ccc(c35)C2=O)C(=O)N(CCCNCc2ccc(OC)c(OC)c2OC)C4=O)c(OC)c1OC | 0.328 µM | 0.174 µM | – | 0.331 µM | 0.293 µM | 0.191 µM | 2.04 | 0.167 µM | 0.108 | 0.0879 | – | 0.119 | 0.109 µM | 0.0911 | 0.137 µM | 0.0921 µM |
| CCCS(=O)(=O)Nc1cccc(Nc2ncnc3cc(NC(=O)CCl)ccc23)c1Cl | 8.54 µM | 1.16 µM | 10.9 | 7.17 µM | 8.44 µM | 8.92 µM | 4.68 | 7.57 µM | 4.38 | 0.516 | 4.28 µM | 3.33 | 3.44 µM | 3.58 | 1.03 µM | 2.46 µM |
| O=C1c2cc3c(cc2-c2c1c1ccc(F)cc1c(=O)n2C[C@H](O)[C@H](O)[C@H](O)CO)OCO3 | 0.896 µM | 0.258 µM | 0.749 | 0.513 µM | 14.9 µM | 0.596 µM | 31.3 | – | 0.243 | 0.05 | 0.148 µM | 0.0624 | 0.204 µM | 0.233 | 0.0479 µM | – |
| N#CC1(N2CCCC2)CCC2(CC1)OCCO2 | > 100 µM | > 100 µM | > 100 | > 100 µM | – | > 100 µM | > 100 | > 100 µM | – | – | – | – | – | – | – | – |
| C=CCOc1ccc(N)c([N+](=O)[O-])c1 | – | > 100 µM | > 100 | > 100 µM | > 100 µM | > 100 µM | > 100 | > 100 µM | – | – | – | – | – | – | – | – |
| O=c1cc(-c2ccccc2)oc2c1ccc1ccccc12 | 45.5 µM | > 100 µM | 56.8 | – | > 100 µM | > 100 µM | 73.8 | > 100 µM | 9.25 | 17.1 | 23.9 µM | – | 23.1 µM | 74.7 | 22.8 µM | 54.8 µM |
| CCCCC(OC(=O)c1ccc(N)cc1)C(=O)Nc1nc(CC(=O)OCC)cs1 (stereo unspecified) | > 100 µM | > 100 µM | 95.1 | > 100 µM | > 100 µM | 77.4 µM | – | > 100 µM | 37.5 | 44.6 | 35.1 µM | 32.3 | 42.4 µM | 25.7 | – | 42.8 µM |
| NNc1nc2ccccc2o1 | > 100 µM | > 100 µM | > 100 | – | > 100 µM | > 100 µM | > 100 | > 100 µM | – | – | – | – | – | – | – | – |
| CN[C@@H](Cc1cccc2ccccc12)C(=O)N[C@@H](CC(C)C)B(O)O | 0.0395 µM | 0.119 µM and 0.0438 µM | – | 0.0828 µM and 0.0156 µM | 0.154 µM and 0.031 µM | 0.0599 µM and 0.104 µM | 0.0354 | 0.0337 µM and 0.04 µM | 0.0178 | 0.0303 | – | 0.0231 | 0.0391 µM | 0.0237 | – | 0.0169 µM and 0.0131 µM |
| O=S(=O)(O)n1ccnc1 (tested in a mixture with another compound) | > 100 µM | > 100 µM | > 100 | > 100 µM | > 100 µM | > 100 µM | – | > 100 µM | – | – | – | – | – | – | – | – |
| O=C(CCCC(=O)N/N=C/c1cc(Cl)ccc1O)N/N=C\c1cc(Cl)ccc1O | – | > 100 µM | 8.28 | > 100 µM | > 100 µM | > 100 µM | 34.3 | > 100 µM | – | 2.31 | 2.48 µM | 3.74 | 2.68 µM | > 100 | 1.25 µM | 2.71 µM |
| OCCN(CCO)c1nc(N2CCCCC2)c2nc(N(CCO)CCO)nc(N3CCCCC3)c2n1 | 36.4 µM | – | 36.5 | – | > 100 µM | > 100 µM | > 100 | > 100 µM | – | – | – | – | – | – | – | – |
| COc1ccc(C2=NN(C(C)=O)C(c3ccc(Oc4ccnc5cc(Cl)ccc45)c(OC)c3)C2)cc1 (stereo unspecified) | 15.4 µM | 38.4 µM | > 100 | 37.2 µM | – | 26.7 µM | > 100 | – | 3.03 | 4.51 | > 100 µM | 5.02 | – | 7.13 | > 100 µM | – |
| CCOC(=O)c1c(-c2ccc(OC)c(O)c2)c(C#N)c(=S)n(C2OC(COC(C)=O)C(OC(C)=O)C(OC(C)=O)C2OC(C)=O)c1-c1ccccc1 (stereo unspecified) | 87.9 µM and > 100 µM | > 100 µM | > 100 | > 100 µM | 66.5 µM and > 100 µM | – | > 100 | 60.8 µM and > 100 µM | – | – | 43.5 µM and > 100 µM | – | 25 µM and > 100 µM | – | 47.2 µM and > 100 µM | 23.4 µM and > 100 µM |
| Cc1ccc2[nH]c(C(=O)NN3C(=O)C(C)SC34CCC(C)CC4)c(-c3ccccc3)c2c1 (stereo unspecified) | 36 µM | 34.1 µM | – | 32.9 µM | 46 µM | 36.7 µM | 79.6 | 44.5 µM | 16.7 | 15.7 | – | 14.3 | 13.8 µM | 17.8 | 20.4 µM | 19.1 µM |
